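GI50 = concentration required for 50% inhibition of growth. TGI: total growth inhibition.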
Columns and labels:
Experiment in all cases: inhibition of tumour cell growth, NCI panel, 384-well format
SN12C renal = system: SN12C renal
OVCAR-3 ovarian = system: OVCAR-3 ovarian
HCT-116 colon = system: HCT-116 colon
SNB-19 CNS = system: SNB-19 CNS
NCI-H23 lung = system: NCI-H23 lung
SF-539 CNS = system: SF-539 CNS
NCI-H522 lung = system: NCI-H522 lung
SK-OV-3 ovarian = system: SK-OV-3 ovarian
MALME-3M melanoma = system: MALME-3M melanoma
M14 melanoma = system: M14 melanoma
LOX IMVI melanoma = system: LOX IMVI melanoma
NCI-H460 NSCLC = system: NCI-H460 NSCLC
HCT-15 colon = system: HCT-15 colon
NCI-H226 lung = system: NCI-H226 lung
NCI/ADR-RES ovarian = system: NCI/ADR-RES ovarian
SR leukemia = system: SR leukemia
NCI-H322M lung = system: NCI-H322M lung
A498 renal = system: A498 renal
MDA-MB-231 breast = system: MDA-MB-231 breast
SF-295 CNS = system: SF-295 CNS
RPMI-8226 leukemia = system: RPMI-8226 leukemia
HL-60(TB) leukemia = system: HL-60(TB) leukemia
CAKI-1 renal = system: CAKI-1 renal
PC-3 prostate = system: PC-3 prostate
OVCAR-4 ovarian = system: OVCAR-4 ovarian
COLO 205 colon = system: COLO 205 colon
U251 glioblastoma = system: U251 glioblastoma
CCRF-CEM leukemia = system: CCRF-CEM leukemia
T-47D breast = system: T-47D breast
HT29 colon = system: HT29 colon
HOP-92 NSCLC = system: HOP-92 NSCLC
A549 NSCLC = system: A549 NSCLC
MOLT-4 leukemia = system: MOLT-4 leukemia
MDA-MB-435 melanoma = system: MDA-MB-435 melanoma
KM12 colon = system: KM12 colon
SF-268 CNS = system: SF-268 CNS
SW-620 colon = system: SW-620 colon
HCC-2998 colon = system: HCC-2998 colon
786-0 renal = system: 786-0 renal
RXF 393 renal = system: RXF 393 renal
SK-MEL-28 melanoma = system: SK-MEL-28 melanoma
OVCAR-8 ovarian = system: OVCAR-8 ovarian
HOP-62 NSCLC = system: HOP-62 NSCLC
SK-MEL-2 melanoma = system: SK-MEL-2 melanoma
HS 578T breast = system: HS 578T breast
MDA-MB-468 breast = system: MDA-MB-468 breast
OVCAR-5 ovarian = system: OVCAR-5 ovarian

For `Cc1cc2c(C(C)C)c(O)c(O)c(C=O)c2c(O)c1-c1c(C)cc2c(C(C)C)c(O)c(O)c(C=O)c2c1O` (tested in a mixture with another compound), the GI50 (SN12C renal) was 1920 nM, the TGI (SN12C renal) was 3730 nM and the GI50 (OVCAR-3 ovarian) was 1590 nM. The TGI (OVCAR-3 ovarian) was 3460 nM, the GI50 (HCT-116 colon) was 1700 nM and the TGI (HCT-116 colon) was 3120 nM. The GI50 (SNB-19 CNS) was 1250 nM, the TGI (SNB-19 CNS) was 2920 nM and the GI50 (NCI-H23 lung) was 1840 nM. The TGI (NCI-H23 lung) was 4060 nM, the GI50 (SF-539 CNS) was 1720 nM and the TGI (SF-539 CNS) was 3180 nM. For the same compound, the GI50 (NCI-H522 lung) was 1860 nM, the TGI (NCI-H522 lung) was 4100 nM and the GI50 (SK-OV-3 ovarian) was 2580 nM. It also gave a TGI (SK-OV-3 ovarian) of 6670 nM, a GI50 (MALME-3M melanoma) of 1700 nM and a TGI (MALME-3M melanoma) of 3470 nM. It also gave a GI50 (M14 melanoma) of 1830 nM, a TGI (M14 melanoma) of 3790 nM and a GI50 (LOX IMVI melanoma) of 1830 nM. The TGI (LOX IMVI melanoma) was 3420 nM, the GI50 (NCI-H460 NSCLC) was 1900 nM and the TGI (NCI-H460 NSCLC) was 3400 nM. The GI50 (HCT-15 colon) was 1830 nM, the TGI (HCT-15 colon) was 3350 nM and the GI50 (NCI-H226 lung) was 1630 nM. The TGI (NCI-H226 lung) was 3030 nM, the GI50 (NCI/ADR-RES ovarian) was 1830 nM and the TGI (NCI/ADR-RES ovarian) was 3320 nM. The GI50 (SR leukemia) was 1800 nM, the TGI (SR leukemia) was 3210 nM and the GI50 (NCI-H322M lung) was 1670 nM. For the same compound, the TGI (NCI-H322M lung) was 4140 nM, the GI50 (A498 renal) was 2410 nM and the TGI (A498 renal) was 9870 nM. It also gave a GI50 (MDA-MB-231 breast) of 1880 nM, a TGI (MDA-MB-231 breast) of 4150 nM and a GI50 (SF-295 CNS) of 1210 nM. For the same compound, the TGI (SF-295 CNS) was 2710 nM, the GI50 (RPMI-8226 leukemia) was 1420 nM and the TGI (RPMI-8226 leukemia) was 2730 nM. For the same compound, the GI50 (HL-60(TB) leukemia) was 1690 nM, the TGI (HL-60(TB) leukemia) was 3090 nM and the GI50 (CAKI-1 renal) was 2530 nM. It also gave a TGI (CAKI-1 renal) of 5930 nM, a GI50 (PC-3 prostate) of 1670 nM and a TGI (PC-3 prostate) of 3520 nM. The GI50 (OVCAR-4 ovarian) was 2850 nM, the TGI (OVCAR-4 ovarian) was 7520 nM and the GI50 (COLO 205 colon) was 3180 nM. It also gave a TGI (COLO 205 colon) of 9010 nM, a GI50 (U251 glioblastoma) of 1590 nM and a TGI (U251 glioblastoma) of 3020 nM. The GI50 (CCRF-CEM leukemia) was 1140 nM, the TGI (CCRF-CEM leukemia) was 2380 nM and the GI50 (T-47D breast) was 1700 nM. It also gave a TGI (T-47D breast) of 3410 nM, a GI50 (HT29 colon) of 2880 nM and a TGI (HT29 colon) of 9040 nM. For the same compound, the GI50 (HOP-92 NSCLC) was 1780 nM, the TGI (HOP-92 NSCLC) was 4000 nM and the GI50 (A549 NSCLC) was 1860 nM. It also gave a TGI (A549 NSCLC) of 4500 nM, a GI50 (MOLT-4 leukemia) of 765 nM and a TGI (MOLT-4 leukemia) of 2010 nM. The GI50 (MDA-MB-435 melanoma) was 2420 nM, the TGI (MDA-MB-435 melanoma) was 5170 nM and the GI50 (KM12 colon) was 1500 nM. For the same compound, the TGI (KM12 colon) was 3100 nM, the GI50 (SF-268 CNS) was 1660 nM and the TGI (SF-268 CNS) was 3260 nM. It also gave a GI50 (SW-620 colon) of 2070 nM, a TGI (SW-620 colon) of 3980 nM and a GI50 (HCC-2998 colon) of 2320 nM. It also gave a TGI (HCC-2998 colon) of 4700 nM, a GI50 (786-0 renal) of 1890 nM and a TGI (786-0 renal) of 3610 nM. For the same compound, the GI50 (RXF 393 renal) was 604 nM, the TGI (RXF 393 renal) was 1960 nM and the GI50 (SK-MEL-28 melanoma) was 1590 nM. For the same compound, the TGI (SK-MEL-28 melanoma) was 3130 nM, the GI50 (OVCAR-8 ovarian) was 1750 nM and the TGI (OVCAR-8 ovarian) was 3240 nM. The GI50 (HOP-62 NSCLC) was 2240 nM, the TGI (HOP-62 NSCLC) was 3900 nM and the GI50 (SK-MEL-2 melanoma) was 1970 nM. For the same compound, the TGI (SK-MEL-2 melanoma) was 3610 nM, the GI50 (HS 578T breast) was 1670 nM and the TGI (HS 578T breast) was 3060 nM. It also gave a GI50 (MDA-MB-468 breast) of 1680 nM, a TGI (MDA-MB-468 breast) of 3290 nM and a GI50 (OVCAR-5 ovarian) of 2290 nM. The TGI (OVCAR-5 ovarian) was 4570 nM.
